Patent US8927500B2, “Peptidomimetic macrocycles” (Aileron Therapeutics, Inc., priority 2012, dated 2015)
Where two headings read alike, the source gives them in different places. Where a SMILES comes first, the peptide text is derived from it. Bridges are numbered along the chain shown (N, C = ends). [ ]: non-standard residue; d: D form. The star is where a group is joined. Benzoyl(4-F) = O=C(c1ccc(F)cc1)*; R8 = C=CCCCCCC[C@@](C)(N)C(=O)O; Cba = N[C@@H](CC1CCC1)C(=O)O; S5 = C=CCCC[C@](C)(N)C(=O)O; Aib = CC(C)(N)C(=O)O; Sar = CNCC(=O)O

Columns and labels:
MDM2 = MDM2 (Homo sapiens, UniProt Q00987); experiment: Competitive fluorescence polarization assay for MDM2; type: binding; details: competitive FP assay, MDM2
MDMX = target: T1, MDMX (Homo sapiens, UniProt O15151); experiment: Competitive fluorescence polarization assay for MDMX; type: binding; details: competitive FP assay
T1 sequence (O15151 1-125): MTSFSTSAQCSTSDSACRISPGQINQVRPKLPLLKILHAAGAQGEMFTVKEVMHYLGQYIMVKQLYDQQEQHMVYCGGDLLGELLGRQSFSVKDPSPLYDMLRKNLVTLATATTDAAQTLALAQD

Chain of MDM2 (Q00987 1-125): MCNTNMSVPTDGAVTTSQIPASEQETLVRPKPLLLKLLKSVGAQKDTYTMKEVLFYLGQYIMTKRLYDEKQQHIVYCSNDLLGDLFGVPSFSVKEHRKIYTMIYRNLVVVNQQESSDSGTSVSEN

Compound	Ki (MDM2; read-out: Ki (MDM2)) [nM]	Ki (MDMX; read-out: Ki (MDMX)) [nM]	Ki (MDM2; Ki (MDM2)) [nM]	Ki (MDMX; Ki (MDMX)) [nM]
CC(=O)N[C@@H](CCCNC(=N)N)C(=O)N[C@H](C(=O)N[C@@H](Cc1ccccc1)C(=O)N[C@]1(C)CCCCCCC=CCCC[C@@](C)(C(=O)N[C@@H](C)C(=O)N[C@@H](C)C(=O)N[C@@H](C)C(=O)N[C@@H](C)C(=O)N[C@@H](C)C(=O)N[C@H](C)C(N)=O)NC(=O)[C@H](CC(C)C)NC(=O)[C@H](CCC(N)=O)NC(=O)[C@H](C)NC(=O)[C@H](Cc2c[nH]c3ccccc23)NC(=O)[C@H](Cc2ccc(O)cc2)NC(=O)[C@H](CCC(=O)O)NC1=O)[C@@H](C)O [compound 559] (Ac-RTF[R8]EYWAQL[S5]AAAAA[dA]-NH2; staple 4-11)	–	–	10 to 100	10 to 100
CC(=O)N[C@@H](CC(C)C)C(=O)N[C@H](C(=O)N[C@@H](C)C(=O)N[C@]1(C)CCCCCCC=CCCC[C@@](C)(C(=O)N[C@@H](C)C(=O)N[C@@H](C)C(=O)N[C@@H](C)C(=O)N[C@@H](C)C(=O)N[C@@H](C)C(=O)N[C@H](C)C(N)=O)NC(=O)[C@H](CC(C)C)NC(=O)[C@H](CCC(N)=O)NC(=O)[C@H](C)NC(=O)[C@H](Cc2c[nH]c3ccccc23)NC(=O)[C@H](Cc2ccc(O)cc2)NC(=O)[C@H](CCC(=O)O)NC1=O)[C@@H](C)O [compound 560] (Ac-LTA[R8]EYWAQL[S5]AAAAA[dA]-NH2; staple 4-11)	–	–	> 1000	> 1000
CC(=O)N[C@@H](CC(C)C)C(=O)N[C@H](C(=O)N[C@@H](Cc1ccccc1)C(=O)N[C@]1(C)CCCCCCC=CCCC[C@@](C)(C(=O)N[C@@H](C)C(=O)N[C@@H](C)C(=O)N[C@@H](C)C(=O)N[C@@H](C)C(=O)N[C@@H](C)C(=O)N[C@H](C)C(N)=O)NC(=O)[C@H](CC(C)C)NC(=O)[C@H](CCC(N)=O)NC(=O)C(C)(C)NC(=O)[C@H](Cc2c[nH]c3ccccc23)NC(=O)[C@H](Cc2ccc(O)cc2)NC(=O)[C@H](CCC(=O)O)NC1=O)[C@@H](C)O [compound 561] (Ac-LTF[R8]EYW[Aib]QL[S5]AAAAA[dA]-NH2; staple 4-11)	–	–	< 10	10 to 100
CC(=O)N[C@@H](CC(C)C)C(=O)N[C@H](C(=O)N[C@@H](Cc1ccccc1)C(=O)N[C@]1(C)CCCCCCC=CCCC[C@@](C)(C(=O)N[C@@H](CO)C(=O)O)NC(=O)[C@H](CC2CCC2)NC(=O)[C@H](CCC(N)=O)NC(=O)[C@H](C)NC(=O)[C@H](Cc2c[nH]c3ccccc23)NC(=O)[C@H](Cc2ccc(O)cc2)NC(=O)[C@H](CCC(=O)O)NC1=O)[C@@H](C)O [compound 594] (Ac-LTF[R8]EYWAQ[Cba][S5]S-OH; staple 4-11)	< 10	< 10	–	–
CC(C)C[C@H](NC(=O)c1ccc(F)cc1)C(=O)N[C@H](C(=O)N[C@@H](Cc1ccccc1)C(=O)N[C@]1(C)CCCCCCC=CCCC[C@@](C)(C(=O)N[C@@H](C)C(=O)N[C@@H](C)C(=O)N[C@@H](C)C(=O)N[C@@H](C)C(=O)N[C@@H](C)C(=O)N[C@H](C)C(N)=O)NC(=O)[C@H](CC(C)C)NC(=O)[C@H](CCC(N)=O)NC(=O)[C@H](C)NC(=O)[C@H](Cc2c[nH]c3ccccc23)NC(=O)[C@H](Cc2ccc(O)cc2)NC(=O)[C@H](CCC(=O)O)NC1=O)[C@@H](C)O [compound 596] ({Benzoyl(4-F)}-LTF[R8]EYWAQL[S5]AAAAA[dA]-NH2; staple 4-11)	–	–	< 10	10 to 100
CC(=O)N[C@@H](CC(C)C)C(=O)N[C@H](C(=O)N[C@@H](Cc1ccccc1)C(=O)N[C@]1(C)CCCCCCC=CCCC[C@@](C)(C(=O)N[C@@H](C)C(=O)N[C@@H](C)C(=O)N[C@@H](C)C(=O)N[C@@H](C)C(=O)N[C@@H](C)C(=O)N[C@H](C)C(N)=O)NC(=O)[C@H](CC(C)C)NC(=O)[C@H](CCC(N)=O)NC(=O)[C@H](C)NC(=O)[C@H](Cc2c[nH]c3ccccc23)NC(=O)[C@H](Cc2ccc(O)cc2)NC(=O)[C@H](CCCNC(=N)N)NC1=O)[C@@H](C)O [compound 598] (Ac-LTF[R8]RYWAQL[S5]AAAAA[dA]-NH2; staple 4-11)	–	–	< 10	10 to 100

Now from value to molecule, other results behind:

Ki (MDM2; read-out: Ki (MDM2)) [nM]	Ki (MDMX; read-out: Ki (MDMX)) [nM]	Compound	Ki (MDM2; Ki (MDM2)) [nM]	Ki (MDMX; Ki (MDMX)) [nM]
10 to 100	10 to 100	CC(=O)N[C@@H](CC(C)C)C(=O)N[C@H](C(=O)N[C@@H](Cc1ccccc1)C(=O)N[C@]1(C)CCCCCC/C=C/CCC[C@@](C)(C(=O)N[C@@H](C)C(=O)NC(C)(C)C(=O)N[C@@H](C)C(=O)N[C@@H](C)C(=O)N[C@@H](C)C(=O)N[C@H](C)C(N)=O)NC(=O)[C@H](CC(C)C)NC(=O)[C@H](CCC(N)=O)NC(=O)[C@H](C)NC(=O)[C@H](Cc2c[nH]c3ccccc23)NC(=O)[C@H](Cc2ccc(O)cc2)NC(=O)[C@H](CCC(=O)O)NC1=O)[C@@H](C)O [compound 562] (Ac-LTF[R8]EYWAQL[S5]A[Aib]AAA[dA]-NH2; staple (E) 4-11)	–	–
10 to 100	10 to 100	CC(=O)N[C@@H](CC(C)C)C(=O)N[C@H](C(=O)N[C@@H](Cc1ccccc1)C(=O)N[C@]1(C)CCCCCCC=CCCC[C@@](C)(C(=O)N[C@@H](C)C(=O)N[C@@H](C)C(=O)NC(C)(C)C(=O)N[C@@H](C)C(=O)N[C@@H](C)C(=O)N[C@H](C)C(N)=O)NC(=O)[C@H](CC(C)C)NC(=O)[C@H](CCC(N)=O)NC(=O)[C@H](C)NC(=O)[C@H](Cc2c[nH]c3ccccc23)NC(=O)[C@H](Cc2ccc(O)cc2)NC(=O)[C@H](CCC(=O)O)NC1=O)[C@@H](C)O [compound 563] (Ac-LTF[R8]EYWAQL[S5]AA[Aib]AA[dA]-NH2; staple 4-11)	–	–
< 10	10 to 100	CC(=O)N[C@@H](CC(C)C)C(=O)N[C@H](C(=O)N[C@@H](Cc1ccccc1)C(=O)N[C@]1(C)CCCCCCC=CCCC[C@@](C)(C(=O)N[C@@H](C)C(=O)N(C)CC(=O)N[C@@H](C)C(=O)N[C@@H](C)C(=O)N[C@@H](C)C(=O)N[C@H](C)C(N)=O)NC(=O)[C@H](CC(C)C)NC(=O)[C@H](CCC(N)=O)NC(=O)[C@H](C)NC(=O)[C@H](Cc2c[nH]c3ccccc23)NC(=O)[C@H](Cc2ccc(O)cc2)NC(=O)[C@H](CCC(=O)O)NC1=O)[C@@H](C)O [compound 574] (Ac-LTF[R8]EYWAQL[S5]A[Sar]AAA[dA]-NH2; staple 4-11)	–	–
< 10	10 to 100	CC(=O)N[C@@H](CC(C)C)C(=O)N[C@H](C(=O)N[C@@H](Cc1ccccc1)C(=O)N[C@]1(C)CCCCCCC=CCCC[C@@](C)(C(=O)N[C@@H](C)C(=O)N[C@@H](C)C(=O)N(C)CC(=O)N[C@@H](C)C(=O)N[C@@H](C)C(=O)N[C@H](C)C(N)=O)NC(=O)[C@H](CC(C)C)NC(=O)[C@H](CCC(N)=O)NC(=O)[C@H](C)NC(=O)[C@H](Cc2c[nH]c3ccccc23)NC(=O)[C@H](Cc2ccc(O)cc2)NC(=O)[C@H](CCC(=O)O)NC1=O)[C@@H](C)O [compound 575] (Ac-LTF[R8]EYWAQL[S5]AA[Sar]AA[dA]-NH2; staple 4-11)	–	–
< 10	10 to 100	CC(=O)N[C@@H](CC(C)C)C(=O)N[C@H](C(=O)N[C@@H](Cc1ccccc1)C(=O)N[C@]1(C)CCCCCCC=CCCC[C@@](C)(C(=O)N[C@@H](C)C(=O)N[C@@H](C)C(=O)N[C@@H](C)C(=O)N(C)CC(=O)N[C@@H](C)C(=O)N[C@H](C)C(N)=O)NC(=O)[C@H](CC(C)C)NC(=O)[C@H](CCC(N)=O)NC(=O)[C@H](C)NC(=O)[C@H](Cc2c[nH]c3ccccc23)NC(=O)[C@H](Cc2ccc(O)cc2)NC(=O)[C@H](CCC(=O)O)NC1=O)[C@@H](C)O [compound 576] (Ac-LTF[R8]EYWAQL[S5]AAA[Sar]A[dA]-NH2; staple 4-11)	–	–
< 10	10 to 100	CC(=O)N[C@@H](CC(C)C)C(=O)N[C@H](C(=O)N[C@@H](Cc1ccccc1)C(=O)N[C@]1(C)CCCCCCC=CCCC[C@@](C)(C(=O)N[C@@H](C)C(=O)N[C@@H](C)C(=O)N[C@@H](C)C(=O)N[C@@H](C)C(=O)N(C)CC(=O)N[C@H](C)C(N)=O)NC(=O)[C@H](CC(C)C)NC(=O)[C@H](CCC(N)=O)NC(=O)[C@H](C)NC(=O)[C@H](Cc2c[nH]c3ccccc23)NC(=O)[C@H](Cc2ccc(O)cc2)NC(=O)[C@H](CCC(=O)O)NC1=O)[C@@H](C)O [compound 577] (Ac-LTF[R8]EYWAQL[S5]AAAA[Sar][dA]-NH2; staple 4-11)	–	–
10 to 100	10 to 100	CC(=O)N[C@@H](CC(C)C)C(=O)N[C@H](C(=O)N[C@@H](Cc1ccccc1)C(=O)N[C@]1(C)CCCCCCC=CCCC[C@@](C)(C(=O)N[C@@H](C)C(=O)N[C@@H](C)C(=O)N[C@@H](C)C(=O)N[C@@H](C)C(=O)N[C@H](C)C(N)=O)NC(=O)[C@H](CC(C)C)NC(=O)[C@H](CCC(N)=O)NC(=O)[C@H](C)NC(=O)[C@H](Cc2c[nH]c3ccccc23)NC(=O)[C@H](Cc2ccc(O)cc2)NC(=O)[C@H](CCC(=O)O)NC1=O)[C@@H](C)O [compound 585] (Ac-LTF[R8]EYWAQL[S5]AAAA[dA]-NH2; staple 4-11)	–	–
< 10	10 to 100	CC(=O)N[C@@H](CC(C)C)C(=O)N[C@H](C(=O)N[C@@H](Cc1ccccc1)C(=O)N[C@]1(C)CCCCCCC=CCCC[C@@](C)(C(=O)N[C@@H](C)C(=O)N[C@@H](C)C(=O)N[C@@H](C)C(=O)N[C@H](C)C(N)=O)NC(=O)[C@H](CC(C)C)NC(=O)[C@H](CCC(N)=O)NC(=O)[C@H](C)NC(=O)[C@H](Cc2c[nH]c3ccccc23)NC(=O)[C@H](Cc2ccc(O)cc2)NC(=O)[C@H](CCC(=O)O)NC1=O)[C@@H](C)O [compound 586] (Ac-LTF[R8]EYWAQL[S5]AAA[dA]-NH2; staple 4-11)	–	–
< 10	< 10	CC(=O)N[C@@H](CC(C)C)C(=O)N[C@H](C(=O)N[C@@H](Cc1ccccc1)C(=O)N[C@]1(C)CCCCCCC=CCCC[C@@](C)(C(=O)N[C@@H](C)C(=O)N[C@@H](C)C(=O)N[C@H](C)C(N)=O)NC(=O)[C@H](CC(C)C)NC(=O)[C@H](CCC(N)=O)NC(=O)[C@H](C)NC(=O)[C@H](Cc2c[nH]c3ccccc23)NC(=O)[C@H](Cc2ccc(O)cc2)NC(=O)[C@H](CCC(=O)O)NC1=O)[C@@H](C)O [compound 587] (Ac-LTF[R8]EYWAQL[S5]AA[dA]-NH2; staple 4-11)	–	–
